In patent US20230093162A1, “FATTY LIVER AND LIVER FIBROSIS EVALUATION SYSTEM BASED ON IMPEDANCE” (KOREA RESEARCH INSTITUTE OF CHEMICAL TECHNOLOGY, priority 2018, published 2023):

System: liver microtissue (MT) of HepaRG hepatocyte strain
Assay: Evaluation of drug induced fatty liver toxicity by impedance of liver microtissue
Format: cell-based
Conditions: 0.5 M oleic acid
Description: 1. Completely differentiated HepaRG hepatocyte strain was obtained at the density of 4,000,000 cells/100 uL.
2. A sample was prepared according to the manual of C253000 provided by Microfit Co. 10 μL of cell suspension #1 was distributed in each well to allow 400,000 HepaRG cells to be placed per well. This step can be performed using a 3D cell preparation method such as a micropattern plate method or a hanging drop method.
3. The cells were cultured for 3 days and the cell culture medium was replaced every day.
4. On day 4, the microtissue (MT) was distributed in a 96-well plate (Ultra-Low attachment surface multiple well plate, Corning) using a 100 uL blue tip.
5a. The liver microtissue (MT) distributed in the Ultra-Low attachment surface multiple well plate was treated with 0.5 M oleic acid, a fatty liver toxicity inducing drug.
6a. A 200 μL pipette was inserted in the end of the first glass tube of Example 1 and the liver microtissue (MT) and the culture medium were sucked through the other end to fill the glass tube with preventing air bubble formation.
7a. The glass tube was inserted between the two Y tubes (third tube and fourth tube) of Example 1 and Example 4 with preventing air bubble formation.
8a. Air bubbles in the liquid were removed and let the wire of each Y tube shared the same liquid.
9a. The working electrode/sensing electrode of the potentiostat or impedance analyzer was connected to the gold (Au) wire protruding out of the Y tube (iii tube) and the reference/counter electrode was connected to the platinum (Pt) wire protruding out of the other Y tube (III tube).
10a. The liver microtissue (MT) was placed at the end of the plastic tip by using a 1 mL syringe.
11a. The pressure was set at −5 mPa by using the syringe pump and the liver microtissue (MT) was fixed at the plastic tip by the pressure difference.
12a. Alternating current impedance was measured at a fixed voltage of 50 mV from 10^6 Hz to 10^−2 Hz to measure the impedance of the liver microtissue (MT) and the PBS buffer.
13a. The pressure of the syringe pump was set at 10 mPa to allow the liver microtissue (MT) to be removed from the plastic tip.
14a. Impedance was measured at a fixed voltage of 50 mV from 10^6 Hz to 10^−2 Hz to measure the impedance of the PBS buffer (background).
15a. The interior resistance, the exterior resistance and the capacitance of 12a and the resistance and the capacitance of 14a were measured by using a Fitting program (e.g. Zview).
16a. The interior resistance, the exterior resistance and the capacitance of the liver microtissue (MT) were compared with those of the normal control group. At that time, the normal control group indicates the liver microtissue (MT) not treated with oleic acid which was regarded as a fatty liver toxicity inducing drug.
17a. […]

CCCCCCCC/C=C\CCCCCCCC(=O)O [oleic acid]
fat formation in the liver microtissue (MT): fat was formed | impedance of the liver microtissue (MT) (compared with the normal control group, FIG. 2a, 2b, 3): increased | resistance of the liver microtissue (MT) (compared with the normal control group, according to the pressure changes, FIG. 3): increased | internal resistance of the liver microtissue (MT) (fitted with Zview, compared with normal control): increased
